From PubChem BioAssay AID1919001 (Molecular Pharmacology Branch, DTP, NCI, 2023)

Test system: 699152-130-R-J1-PDC complex spheroid growth
Test: Anticancer human tumor 699152-130-R-J1-PDC patient-derived pancreatic carcinoma cell line growth inhibition [AhR]
Details: for IC50: curve of first compound; for viability, T/C: stronger effect = lower value
Method in brief: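 Agents were dosed in half-log steps down from roughly clinical Cmax, or from 10 microM where Cmax was unknown, alone and with AhR antagonists. Read-out: percent test/control growth of tumor spheroids containing HUVEC and MSC stromal cells.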

[1] = second compound 0.1 µM, first compound 0.0316 µM
[2] = second compound 0.1 µM, first compound 0.1 µM
[3] = second compound 0.1 µM, first compound 0.316 µM
[4] = second compound 0.1 µM, first compound 1 µM
[5] = second compound 0.1 µM, first compound 3.16 µM
[6] = second compound 0.1 µM, first compound 10 µM
[7] = second compound 0.316 µM, first compound 0.0316 µM
[8] = second compound 0.316 µM, first compound 0.1 µM
[9] = second compound 0.316 µM, first compound 0.316 µM
[10] = second compound 0.316 µM, first compound 1 µM
[11] = second compound 0.316 µM, first compound 3.16 µM
[12] = second compound 0.316 µM, first compound 10 µM
[13] = second compound 1 µM, first compound 0.0316 µM
[14] = second compound 1 µM, first compound 0.1 µM
[15] = second compound 1 µM, first compound 0.316 µM
[16] = second compound 1 µM, first compound 1 µM
[17] = second compound 1 µM, first compound 3.16 µM
[18] = second compound 1 µM, first compound 10 µM
[19] = second compound 3.16 µM, first compound 0.0316 µM
[20] = second compound 3.16 µM, first compound 0.1 µM
[21] = second compound 3.16 µM, first compound 0.316 µM
[22] = second compound 3.16 µM, first compound 1 µM
[23] = second compound 3.16 µM, first compound 3.16 µM
[24] = second compound 3.16 µM, first compound 10 µM
[25] = second compound 10 µM, first compound 0.0316 µM
[26] = second compound 10 µM, first compound 0.1 µM
[27] = second compound 10 µM, first compound 0.316 µM
[28] = second compound 10 µM, first compound 1 µM
[29] = second compound 10 µM, first compound 3.16 µM
[30] = second compound 10 µM, first compound 10 µM
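Note: compound exposure lasted 7 days after spheroids had grown for 3 days.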

## CCc1c2c(nc3ccc(O)cc13)-c1cc3c(c(=O)n1C2)COC(=O)[C@]3(O)CC + Cc1ccccc1N=Nc1ccc(NC(=O)c2ccnn2C)c(C)c1
Second compound 0.1 µM
  IC50: 12.8 nM
Second compound 0.316 µM
  IC50: 15 nM
Second compound 1 µM
  IC50: 12.3 nM
Second compound 3.16 µM
  IC50: 22.3 nM
Second compound 10 µM
  IC50: 44.4 nM
Second compound 0.1 µM, first compound 0.000949 µM
  viability, T/C: 87.4%
Second compound 0.1 µM, first compound 0.003 µM
  viability, T/C: 86.4%
Second compound 0.1 µM, first compound 0.00949 µM
  viability, T/C: 52.5%
Second compound 0.1 µM, first compound 0.03 µM
  viability, T/C: 46.3%
Second compound 0.1 µM, first compound 0.0949 µM
  viability, T/C: 46.9%
Second compound 0.1 µM, first compound 0.3 µM
  viability, T/C: 34.1%
Second compound 0.316 µM, first compound 0.000949 µM
  viability, T/C: 103%
Second compound 0.316 µM, first compound 0.003 µM
  viability, T/C: 80%
Second compound 0.316 µM, first compound 0.00949 µM
  viability, T/C: 52.2%
Second compound 0.316 µM, first compound 0.03 µM
  viability, T/C: 47.1%
Second compound 0.316 µM, first compound 0.0949 µM
  viability, T/C: 41.8%
Second compound 0.316 µM, first compound 0.3 µM
  viability, T/C: 38.9%
Second compound 1 µM, first compound 0.000949 µM
  viability, T/C: 85%
Second compound 1 µM, first compound 0.003 µM
  viability, T/C: 78.2%
Second compound 1 µM, first compound 0.00949 µM
  viability, T/C: 50.8%
Second compound 1 µM, first compound 0.03 µM
  viability, T/C: 45%
Second compound 1 µM, first compound 0.0949 µM
  viability, T/C: 39.6%
Second compound 1 µM, first compound 0.3 µM
  viability, T/C: 34.2%
Second compound 3.16 µM, first compound 0.000949 µM
  viability, T/C: 95.7%
Second compound 3.16 µM, first compound 0.003 µM
  viability, T/C: 82%
Second compound 3.16 µM, first compound 0.00949 µM
  viability, T/C: 57.2%
Second compound 3.16 µM, first compound 0.03 µM
  viability, T/C: 45.6%
Second compound 3.16 µM, first compound 0.0949 µM
  viability, T/C: 42.8%
Second compound 3.16 µM, first compound 0.3 µM
  viability, T/C: 29.7%
Second compound 10 µM, first compound 0.000949 µM
  viability, T/C: 115%
Second compound 10 µM, first compound 0.003 µM
  viability, T/C: 87.5%
Second compound 10 µM, first compound 0.00949 µM
  viability, T/C: 60.5%
Second compound 10 µM, first compound 0.03 µM
  viability, T/C: 51.2%
Second compound 10 µM, first compound 0.0949 µM
  viability, T/C: 49.9%
Second compound 10 µM, first compound 0.3 µM
  viability, T/C: 39.4%

## COc1ccc([C@@H](O)c2cc(-c3ncnc4cc(N5CCOCC5)ccc34)c(F)cc2Cl)nn1 + CC(CO)NC(=O)c1cc(-c2ccc(Cl)cc2)nn(-c2cnn(C)c2)c1=O
Second compound 0.1 µM
  IC50: 3770 nM
Second compound 0.316 µM
  IC50: 4810 nM
Second compound 1 µM
  IC50: 4410 nM
Second compound 3.16 µM
  IC50: 4240 nM
Second compound 10 µM
  IC50: 2610 nM
[1]
  viability, T/C: 95.1%
[2]
  viability, T/C: 105%
[3]
  viability, T/C: 86.2%
[4]
  viability, T/C: 78.6%
[5]
  viability, T/C: 52.5%
[6]
  viability, T/C: 33.1%
[7]
  viability, T/C: 93.5%
[8]
  viability, T/C: 90.2%
[9]
  viability, T/C: 91.9%
[10]
  viability, T/C: 74.3%
[11]
  viability, T/C: 61.5%
[12]
  viability, T/C: 32.1%
[13]
  viability, T/C: 108%
[14]
  viability, T/C: 100%
[15]
  viability, T/C: 94.2%
[16]
  viability, T/C: 74.1%
[17]
  viability, T/C: 56.5%
[18]
  viability, T/C: 35.9%
[19]
  viability, T/C: 85%
[20]
  viability, T/C: 105%
[21]
  viability, T/C: 94.9%
[22]
  viability, T/C: 70.6%
[23]
  viability, T/C: 58.8%
[24]
  viability, T/C: 34.8%
[25]
  viability, T/C: 88.8%
[26]
  viability, T/C: 87.9%
[27]
  viability, T/C: 68.9%
[28]
  viability, T/C: 63.4%
[29]
  viability, T/C: 47.1%
[30]
  viability, T/C: 38.1%

## Nc1ncn(C2CC(O)C(CO)O2)c(=O)n1 (stereo not given) + Cc1cncc(-c2nc(NCCc3c[nH]c4ccccc34)c3ncn(C(C)C)c3n2)c1
Second compound 0.1 µM
  IC50: > 1000 nM
Second compound 0.316 µM
  IC50: > 1000 nM
Second compound 1 µM
  IC50: > 1000 nM
Second compound 3.16 µM
  IC50: > 1000 nM
Second compound 10 µM
  IC50: < 3.16 nM
Second compound 0.1 µM, first compound 0.00316 µM
  viability, T/C: 109%
Second compound 0.1 µM, first compound 0.01 µM
  viability, T/C: 88%
[1]
  viability, T/C: 90.4%
[2]
  viability, T/C: 98.4%
[3]
  viability, T/C: 85.4%
[4]
  viability, T/C: 87.8%
Second compound 0.316 µM, first compound 0.00316 µM
  viability, T/C: 99.3%
Second compound 0.316 µM, first compound 0.01 µM
  viability, T/C: 90.8%
[7]
  viability, T/C: 104%
[8]
  viability, T/C: 86.5%
[9]
  viability, T/C: 96.3%
[10]
  viability, T/C: 97.2%
Second compound 1 µM, first compound 0.00316 µM
  viability, T/C: 106%
Second compound 1 µM, first compound 0.01 µM
  viability, T/C: 115%
[13]
  viability, T/C: 99.6%
[14]
  viability, T/C: 97.9%
[15]
  viability, T/C: 110%
[16]
  viability, T/C: 92.2%
Second compound 3.16 µM, first compound 0.00316 µM
  viability, T/C: 95%
Second compound 3.16 µM, first compound 0.01 µM
  viability, T/C: 87.1%
[19]
  viability, T/C: 111%
[20]
  viability, T/C: 100%
[21]
  viability, T/C: 97.6%
[22]
  viability, T/C: 93.9%
Second compound 10 µM, first compound 0.00316 µM
  viability, T/C: 0.96%
Second compound 10 µM, first compound 0.01 µM
  viability, T/C: 2.37%
[25]
  viability, T/C: 0.78%
[26]
  viability, T/C: 0.82%
[27]
  viability, T/C: 1.11%
[28]
  viability, T/C: 5.98%

## Nc1ccccc1NC(=O)c1ccc(CNC(=O)OCc2cccnc2)cc1 + Cc1cncc(-c2nc(NCCc3c[nH]c4ccccc34)c3ncn(C(C)C)c3n2)c1
Second compound 0.1 µM
  IC50: 7180 nM
Second compound 0.316 µM
  IC50: 6480 nM
Second compound 1 µM
  IC50: 8110 nM
Second compound 3.16 µM
  IC50: 5350 nM
Second compound 10 µM
  IC50: < 31.6 nM
[1]
  viability, T/C: 94.9%
[2]
  viability, T/C: 96.5%
[3]
  viability, T/C: 99.3%
[4]
  viability, T/C: 107%
[5]
  viability, T/C: 77%
[6]
  viability, T/C: 39.1%
[7]
  viability, T/C: 110%
[8]
  viability, T/C: 97.2%
[9]
  viability, T/C: 105%
[10]
  viability, T/C: 105%
[11]
  viability, T/C: 72.3%
[12]
  viability, T/C: 36.5%
[13]
  viability, T/C: 118%
[14]
  viability, T/C: 116%
[15]
  viability, T/C: 113%
[16]
  viability, T/C: 108%
[17]
  viability, T/C: 72%
[18]
  viability, T/C: 45.1%
[19]
  viability, T/C: 77.8%
[20]
  viability, T/C: 81.4%
[21]
  viability, T/C: 70.3%
[22]
  viability, T/C: 64.2%
[23]
  viability, T/C: 68.1%
[24]
  viability, T/C: 33.8%
[25]
  viability, T/C: 11.6%
[26]
  viability, T/C: 7.91%
[27]
  viability, T/C: 7.77%
[28]
  viability, T/C: 9.69%
[29]
  viability, T/C: 7.99%
[30]
  viability, T/C: 3.12%
